This is an account of results in the NIST ThermoML archive (doi:10.1016/j.jct.2018.12.023).

The term vapor or sublimation pressure denotes the equilibrium pressure above the liquid or solid.

Each structure is given as a SMILES string. ± gives the expanded uncertainty stated by the source.

For this series the following is noted: Liquid, Ebulliometric method (Recirculating still).

As for `CCO` [ethanol], where the note is “351.45 K”, the “vapor or sublimation pressure” value is listed as 101.3 ± 1.6 kPa. `CCOC(=O)CC` [ethyl propanoate]: the “vapor or sublimation pressure” value (372.25 K) amounted to 101.3 ± 1.6 kPa. Regarding `CCI` [iodoethane], the “vapor or sublimation pressure” value (345.5 K) is 101.3 ± 1.6 kPa. For the compound `CCC(=O)O` [propanoic acid], the “vapor or sublimation pressure” value (414.32 K) is 101.3 ± 1.6 kPa.
